Assays:
Assay type in all cases: functional, cell-based
[1] = tested on: HepG2; assay: Cytotoxicity against human HepG2 cells
[2] = Cytotoxicity against human HepG2(2.2.15) cells
[3] = tested on: P388; assay: Cytotoxicity against mouse P388 cells
[4] = Cytotoxicity against human CCM2 cells
[5] = tested on: KB; assay: Cytotoxicity against human KB cells

## C[C@H](CC(=O)C[C@@H](C)[C@H]1CC(=O)[C@@]2(C)C3=C(C(=O)C[C@]12C)[C@@]1(C)CCC(=O)C(C)(C)[C@@H]1CC3=O)C(=O)O [GANODERIC ACID E]
[1]
  IC50: 0.144 nM
[2]
  IC50: 0.105 nM
[3]
  IC50: 5010 nM
[4]
  IC50: 31.2 µM

## C[C@H](CCC(=O)O)[C@H]1CC(=O)[C@@]2(C)C3=C(C(=O)C[C@]12C)[C@@]1(C)CCC(=O)C(C)(C)[C@@H]1C[C@@H]3O [LUCIDENIC ACID A]
[1]
  IC50: 0.164 nM
[5]
  IC50: 17 µM
[2]
  IC50: 0.205 nM
[3]
  IC50: 17 nM
[4]
  IC50: 27.5 µM

## C[C@H](CCC(=O)O)[C@H]1CC(=O)[C@@]2(C)C3=C(C(=O)C[C@]12C)[C@@]1(C)CC[C@H](O)C(C)(C)[C@@H]1C[C@@H]3O [LUCIDENIC ACID N]
[1]
  IC50: 0.206 nM
[5]
  IC50: 26.7 µM
[2]
  IC50: 1.66 nM
[3]
  IC50: 12 nM
[4]
  IC50: 35.5 µM
